Source: patent US20120004166A1, “ARYLOXYALKYLENE-SUBSTITUTED HYDROXYPHENYLHEXYNOIC ACIDS, PROCESS FOR PREPARATION THEREOF AND USE THEREOF AS A MEDICAMENT” (SANOFI, priority 2010, published 2012)

molecular target: T1, GPCR GPR40 (Rattus norvegicus, UniProt Q8K3T4); test: In vitro FLIPR assay with recombinant cells which express the GPCR GPR40; format: cell-based; details: recombinant HEK293 cells expressing rat GPR40; agonist-induced change in intracellular Ca2+ (Fluo-4, FLIPR); 100% = 10 μM linoleic acid
T1 construct: expressed in transfected cells; host or cells: HEK293
Method: In Vitro FLIPR Assay with Recombinant Cells which Express the GPCR GPR40
Function-testing assays were performed by means of the FLIPR technique (“Fluorescence Imaging Plate Reader”, Molecular Devices Corp.). To this end, agonist-induced changes in the intracellular concentration of Ca^2+ were determined in recombinant HEK293 cells which expressed the GPCR GPR40 (species: rat). For the studies, cells were sown into 96-well microtiter plates (60 000 cells/well) and left to grow overnight. The medium was removed and the cells were incubated in buffer which contained the fluorescent dye Fluo-4. After this loading with dye, the cells were washed, test substance was added and changes in the intracellular Ca^2+ concentration were measured in the FLIPR unit. Results were presented as the percentage change relative to the control (0%: no test substance added; 100%: 10 μM reference agonist linoleic acid added) and used to calculate dose/effect curves, and EC50 values were determined.

T1 sequence (Q8K3T4 whole entry): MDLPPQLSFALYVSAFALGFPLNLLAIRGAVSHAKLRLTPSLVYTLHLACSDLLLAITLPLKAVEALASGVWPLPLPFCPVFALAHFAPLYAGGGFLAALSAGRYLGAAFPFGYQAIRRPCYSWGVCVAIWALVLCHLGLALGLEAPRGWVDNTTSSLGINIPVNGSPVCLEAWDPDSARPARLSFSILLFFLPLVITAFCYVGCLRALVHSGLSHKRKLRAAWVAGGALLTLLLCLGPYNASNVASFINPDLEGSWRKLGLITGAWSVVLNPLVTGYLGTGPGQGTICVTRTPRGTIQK

Q: `CC#CC(CC(=O)O)c1ccc(OCC(CCC)COc2cccc(C(C)(C)C)c2)cc1` (stereo not drawn) [Example 45, 3-{4-[2-(3-tert-Butylphenoxymethyl)pentyloxy]phenyl}hex-4-ynoic acid] was tested. Which EC50 did it give?
A: The EC50 was 6850 nM.

Q: How did the EC50 turn out when `CC#CC(CC(=O)O)c1ccc(OCC(COc2ccc(C(F)(F)F)cc2)c2ccccc2)cc1` (stereo not drawn) [Example 46, 3-{4-[2-Phenyl-3-(4-trifluoromethylphenoxy)propoxy]phenyl}hex-4-ynoic acid] was run?
A: The EC50 was 8490 nM.

Q: For `CC#CC(CC(=O)O)c1ccc(OCC(COc2cccc(C(C)(C)C)c2)c2ccccc2)cc1` (stereo not drawn) [Example 47, 3-{4-[3-(3-tert-Butylphenoxy)-2-phenylpropoxy]phenyl}hex-4-ynoic acid], which EC50 is on record?
A: Its EC50 is 8740 nM.

Q: For `CC#CC(CC(=O)O)c1ccc(OCC(COc2ccc(C(F)(F)F)cc2Cl)OCc2ccccc2)cc1` (stereo not drawn) [Example 48, 3-{4-[2-Benzyloxy-3-(2-chloro-4-trifluoromethylphenoxy)propoxy]phenyl}hex-4-ynoic acid], which EC50 is on record?
A: Its EC50 is 7500 nM.

Q: `CC#CC(CC(=O)O)c1ccc(OCC(CO)COc2ccc(C#N)c(Cl)c2)cc1` (stereo not drawn) [Example 49, 3-{4-[3-(3-Chloro-4-cyanophenoxy)-2-hydroxymethylpropoxy]phenyl}hex-4-ynoic acid] was tested. Which EC50 did it give?
A: Its EC50 is 150 nM.

Q: Which EC50 does the source give for `CC#CC(CC(=O)O)c1ccc(OCC(COC)COc2ccc(C#N)c(Cl)c2)cc1` (stereo not drawn) [Example 50, 3-{4-[3-(3-Chloro-4-cyanophenoxy)-2-methoxymethylpropoxy]phenyl}hex-4-ynoic acid] here?
A: The EC50 was 550 nM.

Q: `CC#CC(CC(=O)O)c1ccc(OCC(COCC2CC2)COc2ccc(C#N)c(Cl)c2)cc1` (stereo not drawn) [Example 51, 3-{4-[3-(3-Chloro-4-cyanophenoxy)-2-cyclopropylmethoxymethylpropoxy]phenyl}hex-4-ynoic acid] was tested. Which EC50 did it give?
A: Its EC50 is 2400 nM.

Q: How did the EC50 turn out when `CC#CC(CC(=O)O)c1ccc(OCC(O)COc2ccc(C(F)(F)F)cc2Cl)cc1` (stereo not drawn) [Example 52, 3-{4-[3-(2-Chloro-4-trifluoromethylphenoxy)-2-hydroxypropoxy]phenyl}hex-4-ynoic acid] was run?
A: The EC50 was 990 nM.

Q: How did the EC50 turn out when `CC#CC(CC(=O)O)c1ccc(OCC(COc2ccc(C(F)(F)F)cc2Cl)OC)cc1` (stereo not drawn) [Example 53, 3-{4-[3-(2-chloro-4-trifluoromethylphenoxy)-2-methoxypropoxy]phenyl}hex-4-ynoic acid] was run?
A: Its EC50 is 200 nM.
